In patent publication US20220133738A1, “GENOTYPE AND DOSE-DEPENDENT RESPONSE TO AN ASBTI IN PATIENTS WITH BILE SALT EXPORT PUMP DEFICIENCY” (MIRUM PHARMACEUTICALS, INC., priority 2019, published 2022):
Where “and” joins values, the source holds several entries; their conditions need not be identical. Equal values may be shown once.

What was measured:
[1] = system: children with progressive familial intrahepatic cholestasis (PFIC); experiment: INDIGO phase 2 open-label efficacy and safety study of maralixibat in children with PFIC; type: in vivo, human; conditions: week 48
[2] = system: children with Alagille syndrome (ALGS); experiment: ICONIC phase 2b randomized placebo-controlled drug-withdrawal study with long-term extension of maralixibat in Alagille syndrome; conditions: for C4, mean: baseline 7.4; for Serum cholesterol, mean: baseline 414.3; for ItchRO(Obs) Weekly Morning Average Score, Average Change from Baseline: week 48
Description: Children aged 1-18 years with a diagnosis of ALGS and evidence of cholestasis were eligible to enroll in the ICONIC clinical study, see Tables 12-14. During a long-term extension, participants with sBA levels above the upper limit of normal and/or an ITCHRO(OBS) score >1.5 were eligible for the 400 μg/kg BID dose (all participants received the 400 μg/kg BID dose). Inclusion criteria for the ICONIC study included having cholestasis, which was defined as at least one of 1) sBA concentration (total sBA) >3× the upper limit of normal, 2) serum conjugated bilirubin concentration >1 mg/dL, 3) fat-soluble vitamin deficiency not otherwise explained, 4) serum gamma-glutamyl transferase concentration >3× the upper limit of normal, and 3) intractable pruritus explainable only by liver disease. Inclusion criteria also included having significant pruritus, which was defined as an average daily score of >2 on the ITCHRO(OBS) scale for 2 consecutive weeks (0=no pruritus; 4=most severe pruritus). Exclusion criteria included having surgically disrupted enterohepatic circulation, a liver transplant, decompensated cirrhosis, or having any liver disease other than ALGS.
sBA responders were defined as those patients achieving ≥50% reduction from baseline in sBA at week 12 or 18. ITCHRO responders were defined as those patients achieving at least a 1-point reduction from Baseline in weekly morning ITCHRO(OBS) score at week 12 or 18.
In the open label extension, the effect of higher doses was explored by increasing dosage to a maximum of 400 μg/kg BID in eligible participants.
Efficacy assessments were based on changes from baseline in sBA concentration, weekly average ITCHRO(OBS) scores (0, none; 4, most severe), CSS score (0, none; 4 most severe), and Clinician Xanthoma Scale score (0, none; 4, disabling). […] During the long-term extension, efficacy assessments were conducted every 12 weeks.
sBA were measured using a fully validated liquid chromatography-electrospray ionization-mass electrospray (LC-ESI-MS) method using stable-isotope dilution analysis to measure serum concentrations of principal bile acids (cholic, chenodeoxycholic, ursodeoxycholic, deoxycholic acid, lithocholic, and their corresponding glycine and taurine conjugates). […] Calibration standards of individual bile acids were in the range of 50-25,000 ng/mL and Quality Control samples were prepared at concentrations of 100, 500, 1000, 2500, and 20000 ng/mL. The intra- and inter-assay imprecision of the method for individual bile acids measured was within the accepted GLP quality assurance guidelines of <15% coefficient of variance for these QC samples. The lower limit of quantification of the assay was set at 100 ng/mL and the imprecision at this concentration was <20%. The limit of detection of the assay was 5 ng/mL. Total sBA is represented by the sum of the individual bile acid species measured.

[3] = Withdrawal - Week 22, maralixibat group
[4] = individual subjects, one line per Subject ID of Table 18
[5] = individual subjects, one line per Subject ID of Table 19
[6] = sBA Normalization (<8.5 μmol/L)

CCCCC1(CCCC)CS(=O)(=O)c2ccc(N(C)C)cc2[C@@H](c2ccc(OCc3ccc(C[N+]45CCN(CC4)CC5)cc3)cc2)[C@H]1O [maralixibat]
ALT, change from baseline to week 48, mean [1]: −12 UI/L
C4, change from baseline to week 48, mean [1]: +6.0 ng/mL
ItchRO(Obs) score, change from baseline to week 48, mean [1]: −1.0
Total bilirubin, change from baseline to week 48, mean [1]: +0.8 mg/dL
sBA, change from baseline to week 48, mean [1]: -32 µmol/L
sBA, pruritus, and growth after the higher daily dose ([2]; 400 μg/kg BID relative to 400 μg/kg QD): further improvements
weight Z-scores ([2]; 400 μg/kg BID versus 400 μg/kg QD, FIGS. 35-36): dose-dependent increase
Height Z-score, increase from baseline ([2]; ICONIC participants, FIGS. 33-34, SE 0.1): 0.5
ItchRO (Obs) responders, Decrease from baseline ≥1 ([2]; Open-label Week 18): 67.7%
ItchRO (Obs) responders, Decrease from baseline ≥1.25 ([2]; Open-label Week 18): 58.1%
ItchRO (Obs) responders, Decrease from baseline ≥1.5 ([2]; Open-label Week 18): 51.6%
ItchRO (Obs) responders, Decrease from baseline ≥1 ([2]; Open-label Week 48): 72.4%
ItchRO (Obs) responders, Decrease from baseline ≥1.25 ([2]; Open-label Week 48): 58.6%
ItchRO (Obs) responders, Decrease from baseline ≥1.5 ([2]; Open-label Week 48): 51.7%
C4, mean ([2]; Week 48, n = 15): 20.4 ng/mL
Serum cholesterol, mean ([2]; Week 48, n = 15): 340.3 mg/dL
C4, mean ([2]; Week 191, n = 15): 30.4 ng/mL
Serum cholesterol, mean ([2]; Week 191, n = 15): 277.5 mg/dL
ItchRO (Obs) responders, Decrease from baseline ≥1 [2, 3]: 53.8%
ItchRO (Obs) responders, Decrease from baseline ≥1.25 [2, 3]: 46.2%
ItchRO (Obs) responders, Decrease from baseline ≥1.5 [2, 3]: 23.1%
study days across participants with minimal or no pruritus (ITCHRO(OBS)≤1) ([2]; after 98 weeks): over 89%
Clinician xanthoma scale scores ([2]; all participants by week 48 (p<0.01)): improved significantly
sBA levels, reduction from baseline ([2]; at 191 weeks, long-term extension): about 57%
ITCHRO(OBS) score, mean change from baseline ([2]; at 191 weeks, SE 0.2): −2.5
CSS score, mean reduction ([2]; at 191 weeks, SE 0.4): 2.4 points
ITCHRO(OBS) final score ([2]; at 193 weeks): about 0.33
ITCHRO(OBS) score, mean reduction ([2]; at 193 weeks): over 2 points
CSS scores, average decrease ([2]; by week 48, all participants): over 1.5 points
Clinician Xanthoma Score, reduction from baseline ([2]; by week 191, SE 0.3): 0.7 points
ITCHRO(OBS) scores, average decrease relative to baseline ([2]; by week 193): over 1.5 points
PedsQL Multidimensional Fatigue Scale scores ([2]; core study and extension (p<0.01)): Improvements
tolerability ([2]; core study and extension, over three years): well tolerated
tolerability ([2]; doses up, treatment duration up to 4 years): generally well tolerated
sBA concentration, decrease ([2]; first 18 weeks, 400 μg/kg QD): 31%
ITCHRO(OBS) scores, mean change from baseline ([2]; first 18 weeks, 400 μg/kg QD, SE 0.2): −1.7
Change in ItchRO from Baseline to Week 48 (ITCHRO(OBS) weekly morning average score) [2, 4]: −0.12 and 0.49 and −0.45 and 1.29 and −3.86 and 0.00 and −2.57 and −0.86 (2×) and −0.71 (2×) and −0.00 (2×) and −0.29 and −0.67 and −0.14 and −0.03 and −3.29 (2×) and −3.43 and −2.50 and −2.71 (2×) and −3.50 and −2.29 and −0.17 and −0.43 and −0.83
Serum Bile Acid, Change from Baseline to Week 48 [2, 4]: −56.4 μmol/L and −166.3 μmol/L and −281.4 μmol/L and 166.4 μmol/L and −121.1 μmol/L and 4.3 μmol/L (2×) and −251.0 μmol/L and 3.3 μmol/L and −27.3 μmol/L and −155.5 μmol/L and −240.2 μmol/L and 9.0 μmol/L and 143.1 μmol/L and −112.2 μmol/L and 16.4 μmol/L and −10.9 μmol/L and −16.9 μmol/L and 54.5 μmol/L and −620.4 μmol/L and −23.9 μmol/L and −377.3 μmol/L and −205.9 μmol/L and −270.4 μmol/L and 25.5 μmol/L and −203.6 μmol/L and −96.4 μmol/L and −33.9 μmol/L
Serum Bile Acid, Week 48 [2, 4]: 22.9 µmol/L and 131.8 µmol/L and 98.5 µmol/L and 578.1 µmol/L and 20.8 µmol/L and 333.0 µmol/L and 119.6 µmol/L and 117.7 µmol/L and 492.6 µmol/L and 427.9 µmol/L and 199.8 µmol/L and 29.2 µmol/L and 891.6 µmol/L and 163.4 µmol/L and 60.2 µmol/L and 12.0 µmol/L and 23.6 µmol/L and 126.1 µmol/L and 37.0 µmol/L and 7.0 µmol/L and 101.9 µmol/L and 293.3 µmol/L and 65.0 µmol/L and 110.9 µmol/L and 35.8 µmol/L and 208.0 µmol/L and 55.8 µmol/L and 15.6 µmol/L
ItchRO(Obs) Weekly Morning Average Score, Change from Baseline to Week 48 [2, 5]: −0.12 and 0.49 and −0.45 and 1.29 and −3.86 and 0.00 and −2.57 and −0.86 (2×) and −0.71 (2×) and −0.00 (2×) and −0.29 and −0.67 and −0.14 and −0.03 and −3.29 (2×) and −3.43 and −2.50 and −2.71 (2×) and −3.50 and −2.29 and −0.17 and −0.43 and −0.83
ItchRO(Obs) Weekly Morning Average Score, Week 48 [2, 5]: 2.71 and 3.20 and 1.83 and 3.71 and 0.14 and 1.86 and 0.71 and 1.14 (2×) and 0.29 (2×) and 2.00 (2×) and 1.71 (2×) and 1.00 and 1.40 and 0.00 (7×) and 1.43 and 1.57 and 3.50 and 2.17
sBA levels, least squares mean difference maralixibat vs placebo ([2]; randomized withdrawal (week 18-22), SE 48.0): −114.0
ITCHRO(OBS), LS mean difference maralixibat vs placebo ([2]; randomized withdrawal, SE 0.3): −1.5
ItchRO(Obs) Weekly Morning Average Score, Week 48 Average Score [2, 6]: 0.00
participants meeting sBA Response Definition, Week 48 (N = 28), % [2, 6]: (3.6%)
ItchRO(Obs) Weekly Morning Average Score, Average Change from Baseline [2, 6]: −3.50
ItchRO(Obs) Weekly Morning Average Score, Week 48 Average Score ([2]; sBA ≥50% Reduction): 1.07
participants meeting sBA Response Definition, Week 48 (N = 28), % ([2]; sBA ≥50% Reduction): (46.4%)
ItchRO(Obs) Weekly Morning Average Score, Average Change from Baseline ([2]; sBA ≥50% Reduction): −1.86
ItchRO(Obs) Weekly Morning Average Score, Week 48 Average Score ([2]; sBA ≥60% Reduction): 0.82
participants meeting sBA Response Definition, Week 48 (N = 28), % ([2]; sBA ≥60% Reduction): (39.3%)
ItchRO(Obs) Weekly Morning Average Score, Average Change from Baseline ([2]; sBA ≥60% Reduction): −2.12
ItchRO(Obs) Weekly Morning Average Score, Week 48 Average Score ([2]; sBA ≥70% Reduction): 0.62
participants meeting sBA Response Definition, Week 48 (N = 28), % ([2]; sBA ≥70% Reduction): (28.6%)
ItchRO(Obs) Weekly Morning Average Score, Average Change from Baseline ([2]; sBA ≥70% Reduction): −2.31
ItchRO(Obs) Weekly Morning Average Score, Week 48 Average Score ([2]; sBA ≥80% Reduction): 0.11
participants meeting sBA Response Definition, Week 48 (N = 28), % ([2]; sBA ≥80% Reduction): (14.3%)
ItchRO(Obs) Weekly Morning Average Score, Average Change from Baseline ([2]; sBA ≥80% Reduction): −2.79
ItchRO(Obs) Weekly Morning Average Score, Week 48 Average Score ([2]; sBA ≥90% Reduction): 0.00
participants meeting sBA Response Definition, Week 48 (N = 28), % ([2]; sBA ≥90% Reduction): (3.6%)
ItchRO(Obs) Weekly Morning Average Score, Average Change from Baseline ([2]; sBA ≥90% Reduction): −2.71
CSS final average score ([2]; week 48, all participants): about 1.5
